In US8168779B2, “Anhydrous crystalline β-maltose, its preparation and uses” (priority 2006, dated 2012):

What was measured:
[1] = Hygroscopicity test (moisture content under controlled relative humidity); assay type: physicochemical; settings: 27° C., listed as AC α-Mal (Control 2)
Protocol: Moisture contents of the samples at respective periods were measured based on the change of weight from the start of the test. The moisture contents of the samples at the start of the test were measured by Karl Fischer's method.

[2] = Deionized water-solidifying test (base for solidifying moisture-containing compositions); assay type: physicochemical; settings: 25° C.; for (Appearance) / Condition: after 20 hours from the dissolution; for Time of solidification completed / Time of solidification started: monitored for 2 hours
Description: After completing the dissolution, each test solution was further stirred for four minutes and then the stirring was stopped. Successively, each test solution was left to stand and a solidification of the test solution by the crystallization of hydrous crystalline maltose was monitored macroscopically for two hours. In the cases of the solidified samples, the time of starting the crystallization and that of completing the solidification were checked. (However, the test solution dissolving 18.8 g of crystal was stopped stirring at three minutes after the dissolution because the crystallization of hydrous crystalline maltose was started immediately.) After monitoring macroscopically for two hours, each vessel containing any one of the sample solutions was closed and further left to stand for 18 hours. Then, the condition (appearance) of the test samples after 20 hours from the dissolution was monitored macroscopically and evaluated by the following three phases: (1) clear solution; (2) clouded solution; and (3) solidified. The samples prepared by using 10.0 g, 11.5 g, 13.3 g, or 18.8 g of the anhydrous crystalline α-maltose used in Example 2, as a substitute of the test samples, were treated by the same procedure as controls. The test was carried out in a room where a temperature was kept at 25° C. The results of each sample after 2 and 20 hours are shown in Table 5 and FIG. 13, and Table 6 and FIG. 14, respectively.

[3] = Powderizing test by admixing deionized water; assay type: physicochemical; settings: 25° C., listed as Anhydrous crystalline α-maltose (Control)
Protocol: (§1) The usefulness of the crystal was judged by the amount of deionized water added to the limit of keeping the powder form. The form of the powder was evaluated by the following four phases: (1) powder; (2) lump (it keeps a powder form while it comprises lumps); (3) cake; and (4) paste. As a control, the anhydrous crystalline α-maltose used in Example 2 was treated by the same procedure. The test was carried out in a room where the temperature was kept at 25° C. The results of the test and the form of each sample after admixing with 1.25 ml of deionized water are shown in Table 7 and FIG. 15, respectively.

[4] = Powderizing test by admixing dehydrated ethanol; assay type: physicochemical; settings: listed as Anhydrous crystalline α-maltose (Control)
Protocol: as §1, with “respectively. […] The results of the test and the form of each sample after admixing with 6 ml of dehydrated ethanol are shown in Table 8 and FIG. 16, respectively.” for “respectively.”

[5] = Specific surface area by nitrogen adsorption isotherms (BET); assay type: physicochemical; settings: BET method, listed as anhydrous crystalline α-maltose of Control 2
Protocol: About 3 g of the anhydrous crystalline β-maltose, obtained in Example 1, was dried in the apparatus under a reduced pressure at about 40° C. for about 15 hours as a pretreatment, and then used for the measurement of specific surface area by the nitrogen adsorption isotherms. The result was analyzed by conventional BET (Brunnauer, Emmet, and Teller) method.

[6] = mercury filling method
[7] = 10.0 g dissolved in 10 g deionized water (50.0%)
[8] = 10.0 g dissolved in 10 g deionized water (calc. conc. 50.0%)
[9] = 11.5 g dissolved in 10 g deionized water (53.5%)
[10] = 11.5 g dissolved in 10 g deionized water (calc. conc. 53.5%)
[11] = 13.3 g dissolved in 10 g deionized water (57.0%)
[12] = 13.3 g dissolved in 10 g deionized water (calc. conc. 57.0%)
[13] = 18.8 g dissolved in 10 g deionized water (calc. conc. 65.0%)
[14] = control values originate from space between crystal particles, not pores

SMILES: OC[C@H]1O[C@H](O[C@H]2[C@H](O)[C@@H](O)[C@H](O)O[C@@H]2CO)[C@H](O)[C@@H](O)[C@@H]1O [anhydrous crystalline α-maltose]
- Moisture content of samples ([1]; RH 47% (lithium nitrate), 0 hour (start, Karl Fischer)): 0.74 %, w/w
- Moisture content of samples ([1]; RH 47% (lithium nitrate), 2 hours): 0.70 %, w/w
- Moisture content of samples ([1]; RH 47% (lithium nitrate), 4 hours): 0.70 %, w/w
- Moisture content of samples ([1]; RH 47% (lithium nitrate), 24 hours): 0.65 %, w/w
- Moisture content of samples ([1]; RH 47% (lithium nitrate), 96 hours): 0.71 %, w/w
- Moisture content of samples ([1]; RH 47% (lithium nitrate), 192 hours): 0.70 %, w/w
- Moisture content of samples ([1]; RH 58% (sodium bromide), 0 hour (start, Karl Fischer)): 0.74 %, w/w
- Moisture content of samples ([1]; RH 58% (sodium bromide), 2 hours): 0.74 %, w/w
- Moisture content of samples ([1]; RH 58% (sodium bromide), 4 hours): 0.76 %, w/w
- Moisture content of samples ([1]; RH 58% (sodium bromide), 6 hours): 0.80 %, w/w
- Moisture content of samples ([1]; RH 58% (sodium bromide), 8 hours): 0.79 %, w/w
- Moisture content of samples ([1]; RH 58% (sodium bromide), 24 hours): 0.83 %, w/w
- Moisture content of samples ([1]; RH 58% (sodium bromide), 96 hours): 0.98 %, w/w
- Moisture content of samples ([1]; RH 58% (sodium bromide), 192 hours): 0.91 %, w/w
- Moisture content of samples ([1]; RH 75% (sodium chloride), 0 hour (start, Karl Fischer)): 0.74 %, w/w
- Moisture content of samples ([1]; RH 75% (sodium chloride), 2 hours): 1.18 %, w/w
- Moisture content of samples ([1]; RH 75% (sodium chloride), 4 hours): 2.44 %, w/w
- Moisture content of samples ([1]; RH 75% (sodium chloride), 6 hours): 2.88 %, w/w
- Moisture content of samples ([1]; RH 75% (sodium chloride), 8 hours): 3.14 %, w/w
- Moisture content of samples ([1]; RH 75% (sodium chloride), 24 hours): 3.84 %, w/w
- Moisture content of samples ([1]; RH 75% (sodium chloride), 96 hours): 3.85 %, w/w
- Moisture content of samples ([1]; RH 75% (sodium chloride), 192 hours): 4.49 %, w/w
- Moisture content of samples ([1]; RH 90% (barium chloride), 0 hour (start, Karl Fischer)): 0.74 %, w/w
- Moisture content of samples ([1]; RH 90% (barium chloride), 2 hours): 1.79 %, w/w
- Moisture content of samples ([1]; RH 90% (barium chloride), 4 hours): 4.30 %, w/w
- Moisture content of samples ([1]; RH 90% (barium chloride), 6 hours): 6.29 %, w/w
- Moisture content of samples ([1]; RH 90% (barium chloride), 8 hours): 7.82 %, w/w
- Moisture content of samples ([1]; RH 90% (barium chloride), 24 hours): 15.78 %, w/w
- Moisture content of samples ([1]; RH 90% (barium chloride), 96 hours): 17.77 %, w/w
- Moisture content of samples ([1]; RH 90% (barium chloride), 192 hours): 14.38 %, w/w
- (Appearance) [2, 7]: (Clear solution)
- Condition [2, 7]: Not solidified
- Time of solidification completed [2, 8]: Not solidified
- Time of solidification started [2, 8]: Not solidified
- (Appearance) [2, 9]: (Clear solution)
- Condition [2, 9]: Not solidified
- Time of solidification completed [2, 10]: Not solidified
- Time of solidification started [2, 10]: Not solidified
- (Appearance) [2, 11]: (Clouded solution)
- Condition [2, 11]: Not solidified
- Time of solidification completed [2, 12]: Not solidified
- Time of solidification started [2, 12]: Not solidified
- Condition ([2]; 18.8 g dissolved in 10 g deionized water (65.0%)): Solidified
- Time of solidification completed [2, 13]: Not solidified
- Time of solidification started [2, 13]: Not solidified
- Form of the powder after admixing deionized water ([3]; 10 g crystal + 0.75 ml water (moisture content 7.0%, w/w)): Lump form
- Form of the powder after admixing deionized water ([3]; 10 g crystal + 1.00 ml water (moisture content 9.1%, w/w)): Cake form
- Form of the powder after admixing deionized water ([3]; 10 g crystal + 1.25 ml water (moisture content 11.1%, w/w)): Paste form
- Form of the powder after admixing dehydrated ethanol ([4]; 10 g crystal + 3.5 ml ethanol (27.5 v/w %)): Lump form
- Form of the powder after admixing dehydrated ethanol ([4]; 10 g crystal + 4.0 ml ethanol (30.5 v/w %)): Cake form
- Form of the powder after admixing dehydrated ethanol ([4]; 10 g crystal + 4.5 ml ethanol (33.3 v/w %)): Cake form
- Form of the powder after admixing dehydrated ethanol ([4]; 10 g crystal + 5.0 ml ethanol (36.0 v/w %)): Cake form
- Form of the powder after admixing dehydrated ethanol ([4]; 10 g crystal + 5.5 ml ethanol (38.5 v/w %)): Paste form
- Form of the powder after admixing dehydrated ethanol ([4]; 10 g crystal + 6.0 ml ethanol (40.9 v/w %)): Paste form
- Specific surface area [5]: 0.48 m^2/g
- Intrusion volume ([6]; initial pressure 15 kPa): (No pore)
- Median pore diameter [6, 14]: 13.00 μm
- Mode pore diameter [6, 14]: 20.70 μm
